In paper PMC8769072, “Proteome‐scale mapping of binding sites in the unstructured regions of the human proteome” (Molecular Systems Biology, 2022):

Tested on: immobilized GST-tagged bait protein domains
Assay: ProP-PD phage selections (HD2 P8, sublibraries, HD2 P3, HD1 P8) with NGS and confidence level
Format: binding, human
Conditions: for HD confidence / HD mean counts / HD count proportions: HD1 P8 library; for HD mean counts: mean NGS counts over replicate selections; for HD count proportions: mean proportion of NGS counts
[1] = HD2 library, bait PDCD6IP_Alix-V-domain__Q8WUM4_360_702, benchmark motif instance, in_library_check FALSE, in_library_coverage 0
[2] = bait MAP1LC3A_ATG8 (Q9H492 2-121), HD2 library, benchmark motif instance recovered in the ProP-PD selection (TRUE/FALSE)
[3] = bait MAP1LC3B_ATG8 (Q9GZQ8 2-119), HD2 library, benchmark motif instance recovered in the ProP-PD selection (TRUE/FALSE)
[4] = bait KPNA4_Arm (O00629 68-487), HD2 library, benchmark motif instance recovered in the ProP-PD selection (TRUE/FALSE)
[5] = bait SIN3A_PAH__Q96ST3_295_383, HD2 library, whether the validated benchmark motif instance was recovered in the ProP-PD selection (TRUE/FALSE)
[6] = HD2 library, bait SUMO1_SUMO__P63165_1_101, known motif instance of the benchmarking set found (TRUE) or not found (FALSE) among selected peptides
[7] = library HD2, bait EPS15_EH__P42566_121_215, whether the validated benchmark motif instance was recovered in the ProP-PD selection (TRUE/FALSE)
[8] = bait CALM1_EF-hand__P0DP23_2_149, library HD2, benchmarking set of validated motif instances, TRUE = motif instance recovered in the ProP-PD selection
[9] = bait OXSR1___O95747_434_527, HD2 library, whether the validated benchmark motif instance was recovered in the ProP-PD selection (TRUE/FALSE)
[10] = bait AP2B1_adaptin__P63010_700_937, confidence level (4 = High, 2-3 = Medium, 1 = Low)
[11] = bait AP2B1_adaptin__P63010_700_937
[12] = library HD2, bait VASP_EVH1__P50552_1_114, validated benchmark motif instance, in_library_check TRUE, TRUE/FALSE = instance recovered in ProP-PD selection
[13] = library HD2, bait USP7_MATH-TRAF__Q93009_53_206, validated benchmark motif instance, in_library_check TRUE, TRUE/FALSE = instance recovered in ProP-PD selection
[14] = library HD2, bait WDR5_WD_1234567_P61964_21_334, validated benchmark motif instance, in_library_check TRUE, TRUE/FALSE = instance recovered in ProP-PD selection
[15] = library HD2, bait KLC1_TPR__Q07866_203_497, whether the validated benchmark motif instance was recovered in the ProP-PD selection (TRUE/FALSE)
[16] = HD2 library, bait TNKS_TANK-peptide-bind__O95271_174_649, known motif instance of the benchmarking set found (TRUE) or not found (FALSE) among selected peptides
[17] = bait SUMO1_SUMO__P63165_1_101, HD2 library, confidence level (1-4) of best matching selected peptide
[18] = bait SUMO1_SUMO__P63165_1_101, HD2 library, specificity score of best matching selected peptide
[19] = bait SUMO1_SUMO__P63165_1_101, HD2 library, whether the validated benchmark motif instance was recovered in the ProP-PD selection (TRUE/FALSE)
[20] = HD2 library, bait CALM1_EF-hand__P0DP23_2_149, benchmark motif instance, in_library_check FALSE, in_library_coverage 0

## -----MSLYPSLEDLKVDK [SDCBP 3-7]
[1]
  motif_found: FALSE

## --MELNSLLILLEAAEYLERRDREA [MXD4 6-16]
HD2 library, bait SIN3A_PAH__Q96ST3_295_383, benchmark motif instance, in_library_check FALSE, in_library_coverage 0
  motif_found: FALSE

## -MDAATLTYDTLRFAEFED
[2]
  motif_found: FALSE
[3]
  motif_found: FALSE

## -MNSPGGRGKKKGSGGASNPV
[4]
  motif_found: FALSE

## AAAAYVDHFAAECLVSMSSRAVVH
[5]
  motif_found: FALSE

## AAALPQPEVILLDSDLDEPIDL
[6]
  motif_found: FALSE

## AAAVRMNIQMLLEAADYLERREREA
[5]
  motif_found: FALSE

## AAGPSVASSTNPFQTN
Library HD2, bait EPS15_EH__P42566_121_215, best matching peptide
  best_specificity: 1
Library HD2, bait EPS15_EH__P42566_121_215, confidence level of best matching peptide (4 High, 2-3 Medium, 1 Low)
  best_confidence: 3
[7]
  motif_found: TRUE

## AAQATGTTNPFLL------
[7]
  motif_found: FALSE

## AASVNANFAHFDNFPK
Bait AP2B1_adaptin__P63010_700_937, HD2 P8 endomembrane sublibrary, confidence level (4 = High, 2-3 = Medium, 1 = Low)
  HD2_endomembrane confidence: 4

## ADTPPPAYLPPEDPMT
Library HD2, bait YAP1_WW_1_P46937_169_207, confidence level of best matching selected peptide (4 High, 2-3 Medium, 1 Low)
  best_confidence: 2
Library HD2, bait YAP1_WW_1_P46937_169_207, specificity score of best matching selected peptide
  best_specificity: 1
Library HD2, bait YAP1_WW_1_P46937_169_207, validated benchmark motif instance, in_library_check TRUE, TRUE/FALSE = instance recovered in ProP-PD selection
  motif_found: TRUE

## AEERVVVISSSE
[6]
  motif_found: FALSE

## AESSQAVMSLPKLQQV
Bait ANKRA2_Ank__Q9H9E1_142_313, library HD2 P8
  HD2 confidence: 4

## AFIIWLARRLKKGKK [SELL]
[8]
  motif_found: FALSE

## AGVFKMGRFQVSVAADGAQ
[9]
  motif_found: FALSE

## AIPWAAFPAVSGVHLS
[10]
  HD confidence: 4
[11]
  HD mean counts: 2.25
  HD count proportions: 0.0009118
Bait AP2B1_adaptin__P63010_700_937, HD2 P8 library, confidence level (4 = High, 2-3 = Medium, 1 = Low)
  HD2 confidence: 3

## AKNGAASKRAFKQSPPAVPALGAGVKKRRHGDEDTYY
[4]
  motif_found: FALSE

## AMICYRKKRKGKLTLEDQAT
[4]
  motif_found: FALSE

## APLEEEIFPSPPPPPEEEG
[12]
  motif_found: FALSE

## APPVSGTFKFNTDAAEFIPQEKKNSGL
Bait PABP-B_PABP__P11940_544_623, HD2 library, whether the validated benchmark motif instance was recovered in the ProP-PD selection (TRUE/FALSE)
  motif_found: FALSE

## AQCSTSDSACRISPGQ
Library HD2, bait USP7_MATH-TRAF__Q93009_53_206, confidence level of best matching selected peptide (4 High, 2-3 Medium, 1 Low)
  best_confidence: 2
Library HD2, bait USP7_MATH-TRAF__Q93009_53_206, specificity score of best matching selected peptide
  best_specificity: 1
[13]
  motif_found: TRUE

## AQSMVSGSHCTPPPPY
Bait NEDD4_WW_4 (P46934 890-928), HD2 library, benchmark motif instance recovered in the ProP-PD selection (TRUE/FALSE)
  motif_found: TRUE
Bait NEDD4_WW_4 (P46934 890-928), HD2 library, confidence level (1-4) of best matching peptide
  best_confidence: 4
Bait NEDD4_WW_4 (P46934 890-928), HD2 library, specificity score of best matching peptide
  best_specificity: 0.99

## AQSPLPSTNPFQPNGLAPG
[7]
  motif_found: FALSE

## ARKEVIRNKIRAIGKMARVFSVLR,VIRNKIRAIGKMARVFS,KEVIRNKIRAIGKMARVFS [PPP3CA]
[8]
  motif_found: FALSE

## ARTKQ
[14]
  motif_found: FALSE

## ARTKQTA
[14]
  motif_found: FALSE

## ASDDSNGLEWENDFVSAEMDDNGN
[15]
  motif_found: FALSE

## ASFTEDAPRPPVPGEEGELVST
[16]
  motif_found: FALSE

## ASSATRELDELMASLSDFKIQGL
Bait PTK2_Focal-AT__Q05397_891_1050, HD2 library, whether the validated benchmark motif instance was recovered in the ProP-PD selection (TRUE/FALSE)
  motif_found: FALSE

## ASTS
[13]
  motif_found: FALSE

## ATGSDSSGVIDLTMDDEESG
[6]
  motif_found: FALSE

## ATLDALLAALRRIQRAD
Library HD2, bait CALM1_EF-hand__P0DP23_2_149, motif instance NOT in library (in_library_check FALSE, in_library_coverage 0)
  motif_found: FALSE

## ATQCDPEEIIVLSDSD-------
[6]
  motif_found: FALSE

## AVPSVPSTDWEDGDLTDTVSGP
[15]
  motif_found: FALSE

## CNSDRVLKRSAEGSNPPKPLKKLRFDIEGSDE
[4]
  motif_found: FALSE

## CRRPLSRTRNPADGIPAPESSS
[16]
  motif_found: FALSE

## DAPIILSDSEEEEMIILEPDKNPKK
[6]
  motif_found: FALSE

## DAQAGKEPGGSRAHSSHLK
[13]
  motif_found: FALSE

## DATLCSGRFTISTLLS
Bait OXSR1___O95747_434_527, HD2 library, confidence level (1-4) of best matching selected peptide
  best_confidence: 2
Bait OXSR1___O95747_434_527, HD2 library, specificity score of best matching selected peptide
  best_specificity: 1
[9]
  motif_found: TRUE

## DDDSSKDSGFTIVSPL
[2]
  motif_found: TRUE
Bait MAP1LC3A_ATG8 (Q9H492 2-121), HD2 library, confidence level (1-4) of best matching peptide
  best_confidence: 2
Bait MAP1LC3A_ATG8 (Q9H492 2-121), HD2 library, specificity score of best matching peptide
  best_specificity: 1

## DDDVLIVYELTPTAEQ
[17]
  best_confidence: 2
[18]
  best_specificity: 1
[19]
  motif_found: TRUE

## DDGLDEAFSRLAQSRT,WELDDGLDEAFSRLAQSRTNPQVLD [LDLRAP1]
Bait AP2B1_adaptin__P63010_700_937, library HD2, benchmarking set of validated motif instances, TRUE = motif instance recovered in the ProP-PD selection
  motif_found: TRUE

## DDIMPAVKTVIRSIRILKFLVAKRKF [KCNQ4 524-549]
[20]
  motif_found: FALSE

## DDPDAAELNPFGDPDSEEP
[7]
  motif_found: FALSE

## DEIVDLTCESLEPVVV
[17]
  best_confidence: 2
[18]
  best_specificity: 1
[19]
  motif_found: TRUE

## DFPPPPPDLEQLRLTD
Library HD2, bait VASP_EVH1__P50552_1_114, confidence level of best matching selected peptide (4 High, 2-3 Medium, 1 Low)
  best_confidence: 2
Library HD2, bait VASP_EVH1__P50552_1_114, specificity score of best matching selected peptide
  best_specificity: 1
[12]
  motif_found: TRUE

## DGGTTFEHLWSSLEPD
Bait MDM2_p53-binding-domain (Q00987 17-125), HD2 library, benchmark motif instance recovered in the ProP-PD selection (TRUE/FALSE)
  motif_found: FALSE

## DGNLYPRLYPELSQYMGLS [SDCBP 49-53]
[1]
  motif_found: FALSE

## DGTISVPETWAKFSND
[10]
  HD confidence: 4
[11]
  HD mean counts: 1.5
  HD count proportions: 0.0006297

## DIDQMFSTLLGEMDLLTQSLGVDT
HD2 library, bait TLN1_PTB__Q9Y490_309_401, known motif instance of the benchmarking set found (TRUE) or not found (FALSE) among selected peptides
  motif_found: FALSE

## DKAITDRVILLQKVIRGFKDRSNFLKLKNA [MYO7A 748-763]
[20]
  motif_found: FALSE

## DKEDDQEHPSEKQPSGAESGTLARASLALPTSSLSRTASQSSSHRGWEILRQNTLGHLNLGLNLSEGDGEE [TRPV5]
[8]
  motif_found: FALSE

## DLRKIPDSNPFDATAGYRS
[7]
  motif_found: FALSE

## DNEKECIIVWEKK
[6]
  motif_found: FALSE

## DPSMDKAAVKIQAAFKGYKVRKEMKQQEGPM [OBSCN]
[8]
  motif_found: FALSE

## DRHRIEEKRKRTYETFKSIMK [RELA 301-307]
HD2 library, bait KPNA4_Arm__O00629_68_487, benchmark motif instance, in_library_check FALSE, in_library_coverage 0
  motif_found: FALSE

## DSFYNNSYNPFKEVQTPQY
[7]
  motif_found: FALSE

## DSSCDTDDFVMVPAQFPGD
[2]
  motif_found: FALSE
[3]
  motif_found: FALSE

## DSSKDSGFTIVSPLDI
[3]
  motif_found: TRUE
Bait MAP1LC3B_ATG8 (Q9GZQ8 2-119), HD2 library, confidence level (1-4) of best matching peptide
  best_confidence: 4
Bait MAP1LC3B_ATG8 (Q9GZQ8 2-119), HD2 library, specificity score of best matching peptide
  best_specificity: 1

## DTGKENEMDWDDSALTITVNPMET
[15]
  motif_found: FALSE

## DTHAKWEQATKLILNY
Library HD, bait CALM1_EF-hand__P0DP23_2_149, ProP-PD peptides with disease-related mutations
  confidence: 3

## DTLWRPMPKLAPLGLKVAN
Library HD2, bait ZMYND11_coiled-coil-MYND__Q15326_480_602, validated benchmark motif instance, in_library_check TRUE, TRUE/FALSE = instance recovered in ProP-PD selection
  motif_found: FALSE
